US4092426A, “Novel aminobenzoic acid derivatives, process for preparing the same and pharmaceutical composition containing the same” (Chugai Seiyaku Kabushiki Kaisha, priority 1975, dated 1978)

Tests used:
triglyceride in liver = test: Action for decreasing triglyceride in liver (ethanol-induced); format: in vivo, Sprague Dawley strain female rats; conditions: Rattus norvegicus, po, 24 h, oral 100 mg/kg, 30 min before ethanol 6 g/kg, read-out: % Prevention (of increase in triglyceride content in the liver)
Experimental: Sprague Dawley strain female rats each weighing 170 - 200 g which had been fasted for 15 hours were divided into groups of 4 rats each. The rats were orally administered a different test compound in a dose of 100 mg/kg, and 30 minutes after the administration, orally administered ethanol in a dose of 6 g/kg. Twenty-four hours after the administration of ethanol, the liver of each rat was taken out and neutral lipid level in the liver was measured in a conventional manner to calculate the ratio of preventing an increase in triglyceride content in the liver. For a control group, ethanol and, for the other control group, a glucose aqueous solution equivalent in calorific value to the same amount of ethanol were used and the same manner as those of test groups, and for the positive control group, commercially available 2-mercaptopropionylglycine was used instead of the test compound.
*The % prevention was calculated by the following

[1] = tested on: Pseudomonas aeruginosa Pa-II; test: Activity for Protecting from Infection by Bucillus Pyocyaneous, with carbenicillin; format: in vivo; conditions: mouse, test compound (combination arm) 2 mg/head oral; for Number of Survival Animals/Number of Tested Animals: 54 hours
Experimental: As test animals, ddY strain male mice (5 week old) which were divided into groups of 9 members each were used. Each mouse was intraperitoneally administered with 10^6 Pseudomonas aeruginosa Pa-II, and 1.5 hours after the administeration, subcutaneously administered one shot of carbenicillin, an antibiotic. The test compound, disodium salt of N-2'-carboxyphenyl-4-chloroanthranilic acid, was orally administered once a day in a dose of 2 mg/head one and two days before the inoculation, respectively. The activity of the test compound was evaluated by observing the test animals for 54 hours after the inoculation.

[2] = tested on: plaque forming cells (PFC) in the spleen; test: Activity for Recovering Immune Depletion by cortisone: plaque forming cells (PFC) in the spleen; format: in vivo, IV CS strain male mice; conditions: cortisone 60 mg/kg i.p. alone
Experimental: As test animals, IV CS strain male mice (5 week old) were used by dividing them into groups of 5 members each. Each mouse was intraperitoneally administered with cortisone in a dose of 60 mg/kg once a day for 5 days. Three days after the first administration, the sensitization with an antigen, sheep red blood cell (SRBC), was made by injecting the antigen into the mouse through the tail vein. Each mouse was orally administered with the test compound, disodium salt of N-2'-carboxyphenyl-4-chloroanthranilic acid, a day after the sensitization. Five days after the sensitization, the number of plaque forming cells (PFC) in the spleen was measured in a usual manner.

[3] = tested on: concentration of BSP in blood; test: Bromosulfophthalein (BSP) Test; format: in vivo, Sprague Dawley strain female rats; conditions: rat, oral 100 mg/kg; BSP 28 mg/head i.v.; 30 min after; ** P<0.01
Experimental: Sprague Dawley strain female rats each weighing 150 - 190 g which had been fasted for 15 hours were divided into groups of 4 rats each. The rats were orally administered a different test compound in a dose of 100 mg/kg, and 60 minutes after the administration, each of the rats was injected through the tail vein with 28 mg/head of BSP. Thirty minutes after the injection, the blood of each rat was sampled from the heart and the concentration of BSP was determined in a conventional colorimetric manner. As control, a physiological saline solution was orally administered instead of the test compound.

[4] = tested on: concentration of ICG in the blood; test: Indocyanogree (ICG) Test; format: in vivo, Sprague Dawley strain male rats; conditions: rat, oral 100 mg/kg; ICG 2 mg/head i.v.; 15 min after; ** P<0.02
Experimental: Sprague Dawley strain male rats weighing 180 - 210 g which had been fasted for 15 hours were divided into groups of 4 rats each. The rats were orally administered a different test compound in a dose of 100 mg/kg, and 60 minutes after the administration, each of the rats was injected through the tail vein with 2 mg/head of ICG. Fifteen minutes after the injection, the blood of each rat was sampled from the heart and the concentration of ICG in the blood was determined in a conventional colorimetric manner. As control, a physiological saline solution was used.

[5] = tested on: concentration of bilirubin in the blood; test: Bilirubin Excretion Activity; format: in vivo, Sprague Dawley strain female rats; conditions: rat, oral 100 mg/kg; bilirubin i.v.; 20 min after; ** P<0.02
Experimental: Sprague Dawley strain female rats each weighing 160 - 200 g which had been fasted for 15 hours were divided into groups of 6 rats each. The rats were orally administered with a different test compound in a dose of 100 mg/kg, and 60 minutes after the administration, each of the rats was injected through the tail vein with […] of bilirubin. Twenty minutes after the injection, the blood of each rat was sampled from the heart and the concentration of bilirubin in the blood was determined in a conventional manner.
As control, a physiological saline solution was used instead of the test compound.

plaque forming cells = test: Increase in Number of Plaque Forming Cells after sensitization with SRBC (Jerne's plaque method); format: in vivo, Sprague Dawley strain male rats
Experimental: (§1) Sprague Dawley strain male rats weighing 200 - 220 g which were divided into 7 groups of 5 or 6 rats each were used as test animals.
(§2) The six groups were orally administered by one shot with the test compound, N-2'-carboxyphenyl-4-chloroanthranilic acid in a dose of 100 mg/kg on six different days, a day before the sensitization, on the date, a day after, two days after, three days after and four days after the sensitization with an antigen (SRBC: Sheep red blood cell). The SRBC was intraveneously injected in the rat through the tail vein in an amount of 1 ml as a 2% aqueous suspension. For control groups, a physiological saline solution was used in the same amount and in the same manner as those of the test groups on the day of sensitization.
(§3) Five days after the sensitization, the rats were sacrificed and the spleen of each of the rats was taken out and the blood was sampled.
(§4) The number of plaque forming cells and titers in blood were determined by the Jerne's plaque method and a hemolysing method, respectively.

antibody in blood = test: Titer of Antibody in Blood after sensitization with SRBC (hemolysing method); format: in vivo, Sprague Dawley strain male rats; conditions: administered on the day and a day after the sensitization with SRBC
Experimental: as §1, §2, §3, §4

Acute Toxicity = test: Acute Toxicity; parameters: species or system Wistar-Imamichi strain male and female rats; conditions: rat, in vivo, po, suspension in 5% gum arabi
Experimental: Acute toxicity of N-2'-carboxyphenyl-4-chloroanthranilic acid was determined using Wistar-Imamichi strain male and female rats (11 week old) as test animals. The test compound was orally administered as a suspension in a 5% gum arabi aqueous solution.

CC(S)C(=O)NCC(=O)O (stereo not shown) [2-mercaptopropionylglycine, reference compound]
inhibition in vivo at 100 mg/kg (triglyceride in liver): 9.3%

CC1(C)S[C@@H]2[C@H](NC(=O)C(C(=O)O)c3ccccc3)C(=O)N2[C@H]1C(=O)O (stereo partly shown) [Carbenicillin, carbenicillin]
Number of Survival Animals/Number of Tested Animals ([1]; Carbenicillin 10 mg/head s.c.): 0/9
Number of Survival Animals/Number of Tested Animals ([1]; Carbenicillin 20 mg/head s.c.): 2/9
Number of Survival Animals/Number of Tested Animals ([1]; Carbenicillin 40 mg/head s.c.): 9/9
ED50 (dose of carbenicillin) ([1]; 10^6 Pseudomonas aeruginosa Pa-II i.p.): 24.1 mg/head

C[C@]12CCC(=O)C=C1CC[C@@H]1[C@@H]2C(=O)C[C@@]2(C)[C@H]1CC[C@]2(O)C(=O)CO [Cortisone, cortisone, reference compound]
number of PFC per spleen vs control without cortisone [2]: reduced to one third

Cc1ccc(C)c(C(=O)O)c1Nc1cc(Cl)ccc1C(=O)O [N-2'-carboxy-3',6'-dimethylphenyl-4-chloroanthranilic acid]
inhibition in vivo at 100 mg/kg (triglyceride in liver): 45.8%

Cc1ccc(Nc2cc(Cl)ccc2C(=O)O)c(C(=O)O)c1 [N-2'-carboxy-4'-methylphenyl-4-chloroanthranilic acid]
inhibition in vivo at 100 mg/kg (triglyceride in liver): 53.2%

O=C(O)c1ccc(Cl)cc1Nc1cc(Cl)ccc1C(=O)O [N-2'-carboxy-5'-chlorophenyl-4-chloroanthranilic acid]
inhibition in vivo at 100 mg/kg (triglyceride in liver): 57.2%

Cc1cccc(C(=O)O)c1Nc1cc(Cl)ccc1C(=O)O [N-2'-carboxy-6'-methylphenyl-4-chloroanthranilic acid]
inhibition in vivo at 100 mg/kg (triglyceride in liver): 25.2%

Cc1c(Cl)ccc(C(=O)O)c1Nc1ccccc1C(=O)O [N-2'-carboxyphenyl-4-chloro-3-methylanthranilic acid]
inhibition in vivo at 100 mg/kg (triglyceride in liver): 40.5%

O=C(O)c1ccccc1Nc1cc(Cl)ccc1C(=O)O [N-2'-carboxyphenyl-4-chloroanthranilic acid]
inhibition in vivo at 100 mg/kg (triglyceride in liver): 67.1%
% Remain of BSP [3]: 17.3±8.4%
% Remain of ICG [4]: 5.1 ± 0.2%
% Remain of Bilirubin [5]: 39.7 ± 13.3%
Number of plaque forming cell/10^6 cells (plaque forming cells; 100 mg/kg oral, day 0 based on the sensitization, P<0.01): 193.4 ± 26.6 cell/10^6 cells
Number of plaque forming cell/10^6 cells (plaque forming cells; 100 mg/kg oral, day +1 based on the sensitization, P<0.01): 316.8 ± 38.2 cell/10^6 cells
Number of plaque forming cell/10^6 cells (plaque forming cells; 100 mg/kg oral, day +2 based on the sensitization): 76.5 ± 16.3 cell/10^6 cells
Number of plaque forming cell/10^6 cells (plaque forming cells; 100 mg/kg oral, day +3 based on the sensitization): 101.0 ± 11.2 cell/10^6 cells
Number of plaque forming cell/10^6 cells (plaque forming cells; 100 mg/kg oral, day +4 based on the sensitization): 95.5 ± 35.3 cell/10^6 cells
Number of plaque forming cell/10^6 cells (plaque forming cells; 100 mg/kg oral, day -1 based on the sensitization, control 49.7 ± 16.0): 93.2 ± 28.6 cell/10^6 cells
increase in number of plaque forming cells relative to control group (plaque forming cells; 100 mg/kg oral, maximum vs control): about six times as much as the value of the control group
increase in the number of plaque forming cells (plaque forming cells; administered on the date and a day after the sensitization): significant increase
increase in titers in blood (antibody in blood): significant increase
LD50 (Acute Toxicity; female rat): 2600 mg/kg
LD50 (Acute Toxicity; male rat): 2100 mg/kg

O=C(O)c1ccccc1Nc1ccc(Cl)cc1C(=O)O [N-2'-carboxyphenyl-5-chloroanthranilic acid]
inhibition in vivo at 100 mg/kg (triglyceride in liver): 30%

Cc1ccc(Nc2ccccc2C(=O)O)c(C(=O)O)c1 [N-2'-carboxyphenyl-5-methylanthranilic acid]
inhibition in vivo at 100 mg/kg (triglyceride in liver): 20.1%
